{"source": "patent US20240139226A1", "about": "“A COMPOSITION FOR PROMOTING GLP-1 SECRETION” (priority 2021, published 2024)", "system": "NCI-H716 cells", "experiment": "GLP-1 secretion-promoting effect using NCI-H716 cells (GLP-1 in supernatant by ELISA)", "format": "cell-based, Human", "conditions": "for activity at 25 µM: test sample alone at 0.025 mM; for activity at 125 µM: test sample alone at 0.125 mM; for GLP-1 secretion compared to Control: Experiment 1-3, text on Table 1, mGN 2.5 mM, flavor component 0.25 mM; for activity at 2500 µM: test sample alone at 2.5 mM; for activity at 25000 µM: test sample alone at 25 mM", "experimental": "GLP-1 secretion-promoting effect was evaluated by the following experiment using NCI-H716 cells (Human intestinal tract-derived cell line; purchased from ATCC).\nNCI-H716 cells were cultured at 37° C. with 5% CO2 using RPMI1640 (supplemented with 10% Fetal Bovine Serum, manufactured by Sigma) as a cell culture medium for passage. After culturing, cells were suspended in DMEM medium (supplemented with 10% Fetal Bovine Serum; containing 4.5 mg/mL of glucose; manufactured by Shimadzu Diagnostics Corporation, Tokyo, Japan) and added to a Matrigel (120 μL/well; manufactured by Corning Incorporated, NY, USA)-coated 48-well plate at a cell density of 1.2×10^5 cells/well. After incubation for 2 days, the cells were washed twice with 20 mM HEPES-containing HBSS (Hank's Balanced Salt Solution) buffer. After removal of the washing buffer, 20 mM HEPES-HBSS (supplemented with 0.01% BSA) containing the above-described test samples was added and the cells were incubated for 2 hours. After incubation, the supernatant was collected into a microcentrifuge tube containing diprotin-A (DPP4 inhibitor, manufactured by Abcam plc., Cambridge, UK) and protease inhibitors (cOmplete™, EDTA-free Protease Inhibitor Cocktail, Roche, Basel, Switzerland; Catalogue No. 1187358001). After centrifugation, the supernatant was stored at −80° C. until it was used for the GLP-1 measurement. The amount of GLP-1 in the medium was measured by ELISA method using GLP-1 Active Form Assay Kit (manufactured by Immuno-Biological Laboratories Co, Ltd., Gunma, Japan). […] As a positive control for measuring cytotoxicity, the cells added with 0.1% Triton X-100/PBS (−) (Phosphate Buffered Saline) were used. The LDH activity in the cell culture supernatant of the positive control was set as 100% and the ratio to the positive control (LDH activity in the cell culture supernatant of sample/LDH activity in the positive control) was calculated as the cytotoxicity rate. Herein, it was judged that a sample had no cytotoxicity when the cytotoxicity rate was within ±2% compared to that of “control (cells cultured with 20 mM HEPES-HBSS without a test sample, instead of 20 mM HEPES-HBSS containing a test sample; shown as “No Addition” in Table 1)”.\nThe amount of GLP-1 secretion was determined as a relative value to the average value of the GLP-1 secretion amount obtained for a control (cells cultured with 20 mM HEPES-HBSS without a test sample instead of 20 mM HEPES-HBSS containing a test sample; shown as “No Addition” in Table 1). In Table 1, the GLP-1 secretion amounts when mGN and flavor components were used separately and the GLP-1 secretion amounts when mGN and flavor components were used in combination were shown. […] The synergistic effect of mGN and flavor components in promoting GLP-1 secretion was judged based on the following criteria.\nSynergistic Effect: Theoretical Value<(is less than) Measured Value • Theoretical Value=([…])×100+(B/D−1)×100 • Measured Value=(C/D-1)×100\nThe theoretical value and the measure value were compared based on the above formula. When the measured value was higher than the theoretical value, it was judged that there was a synergistic effect, which was indicated as “O” in the table.\nThe presence or absence of the synergistic effect by the combination of mGN and thymol was judged based on the formula used in Experiment 1-3. When the measured value was higher than the theoretical value, it was judged that there was a synergistic effect and it was indicated as “O” in the table. Furthermore, a Tukey-Kramer test was performed. When there was a significant difference (Risk Rate p<0.05) between the GLP-1 secretion amount of the combination of mGN and thymol (C) and each of the GLP-1 secretion amount of Control (D), mGN alone (A), and thymol alone (B), it was indicated “⊚” in the below table.", "key": {"[1]": {"conditions": "Experiment 1-3, flavor component alone 0.25 mM"}, "[2]": {"conditions": "Homo sapiens, NCI-H716, 2 h, Table 1, Experiment 1-3, test sample alone at 0.25 mM, Control (No Addition) = 100, 2 hours, read-out: GLP-1 secretion amount, Independent Use (relative value to Control)"}, "[3]": {"conditions": "Homo sapiens, NCI-H716, 2 h, Table 3, Experiment 3, Control = 100, N=3, read-out: GLP-1 secretion amount, Independent Use (relative value to Control)"}, "[4]": {"conditions": "Homo sapiens, NCI-H716, 2 h, Table 2, Experiment 2, Control = 100, N=3, read-out: GLP-1 secretion amount, Independent Use (relative value to Control)"}, "[5]": {"conditions": "Homo sapiens, NCI-H716, 2 h, Table 4, Experiment 4, Control = 100, N=3, read-out: GLP-1 secretion amount, Independent Use (relative value to Control)"}, "[6]": {"conditions": "Homo sapiens, NCI-H716, 2 h, Table 4, Experiment 4, test sample alone at 0.25 mM, Control = 100, N=3, read-out: GLP-1 secretion amount, Independent Use (relative value to Control)"}, "[7]": {"conditions": "Homo sapiens, NCI-H716, 2 h, Table 6, Experiment 6, Control = 100, N=3, read-out: GLP-1 secretion amount, Independent Use (relative value to Control)"}, "[8]": {"conditions": "Table 1, Experiment 1-3, test sample alone at 0.25 mM, Control (No Addition) = 100, 2 hours"}}, "note": "Read-outs that look alike come from different tables or passages of the source."}
{"smiles": "Cc1ccc(C(C)C)c(O)c1", "note": "[Thymol, thymol]", "values": [{"measurement": "GLP-1 secretion promoting effect when used alone (in words)", "setting": "[1]", "value": "no GLP-1 secretion promoting effect"}, {"measurement": "GLP-1 secretion-promoting effect when used alone (in words)", "setting": "Experiment 2, alone at a concentration of 0.25 mM", "value": "no GLP-1 secretion-promoting effect was observed"}, {"measurement": "GLP-1 secretion promoting effect when used alone (in words)", "setting": "Experiment 3, alone, 0.0067 mM to 0.125 mM", "value": "no GLP-1 secretion promoting effect"}, {"measurement": "activity at 250 µM", "setting": "[2]", "value": 82, "unit": "%"}, {"measurement": "activity at 6.7 µM", "setting": "Homo sapiens, NCI-H716, 2 h, Table 3, Experiment 3, test sample alone at 0.0067 mM, Control = 100, N=3, read-out: GLP-1 secretion amount, Independent Use (relative value to Control)", "value": 34, "unit": "%"}, {"measurement": "activity at 25 µM", "setting": "[3]", "value": 61, "unit": "%"}, {"measurement": "activity at 125 µM", "setting": "[3]", "value": 65, "unit": "%"}]}
{"smiles": "CC1O[C@@H](OC2[C@H](Oc3cc(O)c4c(c3)OC(c3ccc(O)cc3)CC4=O)OC(CO)[C@@H](O)[C@H]2O[C@H]2OC(CO)[C@@H](O)[C@@H](O)C2O)C(O)[C@@H](O)[C@H]1O", "note": "(stereo partly drawn) [mGN, 3″-α-monoglucosyl naringin]", "values": [{"measurement": "GLP-1 secretion compared to Control", "value": "approximately 1.6 times"}, {"measurement": "GLP-1 secretion when used alone (in words)", "setting": "Experiment 2, alone, 0.025 mM to 150 mM", "value": "promoted to some extent in a mGN concentration-dependent manner"}, {"measurement": "activity at 2500 µM", "setting": "Homo sapiens, NCI-H716, 2 h, Table 1, Experiment 1-3, Control (No Addition) = 100, 2 hours, read-out: GLP-1 secretion amount, Independent Use (relative value to Control)", "value": 164, "unit": "%"}, {"measurement": "activity at 25 µM", "setting": "[4]", "value": 45, "unit": "%"}, {"measurement": "activity at 250 µM", "setting": "Homo sapiens, NCI-H716, 2 h, Table 2, Experiment 2, test sample alone at 0.25 mM, Control = 100, N=3, read-out: GLP-1 secretion amount, Independent Use (relative value to Control)", "value": 63, "unit": "%"}, {"measurement": "activity at 2500 µM", "setting": "[4]", "value": 121, "unit": "%"}, {"measurement": "activity at 25000 µM", "setting": "[4]", "value": 427, "unit": "%"}, {"measurement": "activity at 25000 µM", "setting": "[3]", "value": 521, "unit": "%"}, {"measurement": "activity at 25 µM", "setting": "[5]", "value": 39, "unit": "%"}, {"measurement": "activity at 250 µM", "setting": "[6]", "value": 63, "unit": "%"}, {"measurement": "activity at 2500 µM", "setting": "[5]", "value": 85, "unit": "%"}, {"measurement": "activity at 12500 µM", "setting": "Homo sapiens, NCI-H716, 2 h, Table 4, Experiment 4, test sample alone at 12.5 mM, Control = 100, N=3, read-out: GLP-1 secretion amount, Independent Use (relative value to Control)", "value": 502, "unit": "%"}, {"measurement": "activity at 25 µM", "setting": "Homo sapiens, NCI-H716, 2 h, Table 5, Experiment 5, Control = 100, N=3, read-out: GLP-1 secretion amount, Independent Use (relative value to Control)", "value": 39, "unit": "%"}, {"measurement": "activity at 25 µM", "setting": "[7]", "value": 53, "unit": "%"}, {"measurement": "activity at 25000 µM", "setting": "[7]", "value": 457, "unit": "%"}]}
{"smiles": "C=C1CCC2(C(C)C)CC12", "note": "(centres unmarked) [Sabinene, sabinene]", "values": [{"measurement": "GLP-1 secretion promoting effect when used alone (in words)", "setting": "[1]", "value": "no GLP-1 secretion promoting effect"}, {"measurement": "activity at 250 µM", "setting": "[2]", "value": 101, "unit": "%"}]}
{"smiles": "CNc1ccccc1C(=O)OC", "note": "[Methyl N-methyl anthranilate, methyl N-methyl anthranilate]", "values": [{"measurement": "GLP-1 secretion promoting effect when used alone (in words)", "setting": "[1]", "value": "no GLP-1 secretion promoting effect"}, {"measurement": "GLP-1 secretion amount, Independent Use (relative value to Control)", "setting": "[8]", "value": 73}]}
{"smiles": "CC(C)=CCCC(C)CC=O", "note": "(centres unmarked) [Citronellal, citronellal, reference compound]", "values": [{"measurement": "activity at 250 µM", "setting": "[2]", "value": 113, "unit": "%"}]}
{"smiles": "C=C(C)[C@@H]1CCC2=CCC[C@@H](C)[C@]2(C)C1", "note": "[Valencene, valencene]", "values": [{"measurement": "GLP-1 secretion amount, Independent Use (relative value to Control)", "setting": "[8]", "value": 121}]}
{"smiles": "C=C(C)[C@@H]1CCC2=CC(=O)C[C@@H](C)[C@]2(C)C1", "note": "[Nootkatone, nootkatone]", "values": [{"measurement": "GLP-1 secretion when used alone (in words)", "setting": "Experiment 4, alone, concentrations of Table 4", "value": "promoted in a nootkatone concentration-dependent manner"}, {"measurement": "activity at 250 µM", "setting": "[2]", "value": 457, "unit": "%"}, {"measurement": "activity at 12.5 µM", "setting": "Homo sapiens, NCI-H716, 2 h, Table 4, Experiment 4, test sample alone at 0.0125 mM, Control = 100, N=3, read-out: GLP-1 secretion amount, Independent Use (relative value to Control)", "value": 70, "unit": "%"}, {"measurement": "activity at 37.5 µM", "setting": "Homo sapiens, NCI-H716, 2 h, Table 4, Experiment 4, test sample alone at 0.0375 mM, Control = 100, N=3, read-out: GLP-1 secretion amount, Independent Use (relative value to Control)", "value": 111, "unit": "%"}, {"measurement": "activity at 125 µM", "setting": "[5]", "value": 350, "unit": "%"}, {"measurement": "activity at 250 µM", "setting": "[6]", "value": 464, "unit": "%"}]}
{"smiles": "COC(=O)c1ccccc1N", "note": "[Methyl anthranilate, methyl anthranilate]", "values": [{"measurement": "GLP-1 secretion promoting effect when used alone (in words)", "setting": "[1]", "value": "no GLP-1 secretion promoting effect"}, {"measurement": "activity at 250 µM", "setting": "Homo sapiens, NCI-H716, 2 h, read-out: GLP-1 secretion amount, Independent Use (relative value to Control)", "value": 73, "unit": "%"}]}
{"smiles": "CC(C)=CCCC(C)=CC=O", "note": "[Citral, citral, reference compound]", "values": [{"measurement": "GLP-1 secretion compared to Control", "value": "approximately 2.4 times"}, {"measurement": "activity at 250 µM", "setting": "[2]", "value": 246, "unit": "%"}]}
{"smiles": "CC1=CCC2CC1C2(C)C", "note": "(stereo not drawn) [α-Pinene, α-pinene]", "values": [{"measurement": "activity at 250 µM", "setting": "[2]", "value": 136, "unit": "%"}]}
{"smiles": "C=C1C2CCC(C2)C1(C)C", "note": "(centres unmarked) [Camphene, camphene]", "values": [{"measurement": "activity at 250 µM", "setting": "[2]", "value": 135, "unit": "%"}]}
{"smiles": "C=C1CCC2CC1C2(C)C", "note": "(stereo not drawn) [β-Pinene, β-pinene]", "values": [{"measurement": "GLP-1 secretion promoting effect when used alone (in words)", "setting": "[1]", "value": "no GLP-1 secretion promoting effect"}, {"measurement": "activity at 250 µM", "setting": "[2]", "value": 100, "unit": "%"}]}
{"smiles": "C=C1CC/C=C(\\C)CC[C@@H]2[C@@H]1CC2(C)C", "note": "[β-Caryophyllene, β-caryophyllene]", "values": [{"measurement": "GLP-1 secretion amount, Independent Use (relative value to Control)", "setting": "[8]", "value": 111}]}
{"smiles": "CC(=O)/C=C/C1=C(C)CCCC1(C)C", "note": "[β-Ionone, β-ionone]", "values": [{"measurement": "GLP-1 secretion amount, Independent Use (relative value to Control)", "setting": "[8]", "value": 157}]}
